According to ChEMBL document CHEMBL1201862, “PubChem BioAssay data set” (2004):
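Grown in 96-well plates, cells were treated for 48 hours with each compound at five concentrations. Insufficient inhibition: endpoint recorded as highest concentration tested. Abbreviation: GI50, concentration required for 50% inhibition of growth.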 Activity calls are given as the source filed them. Rule as the data show it: active = GI50 up to about 1.1 µM and inactive = higher.

Assays:
Assay in all cases: NCI-60 cell line screen, 48 h
ACHN = system: ACHN
HL-60 = system: HL-60
KM12 = system: KM12
LOX IMVI = system: LOX IMVI
NCI-H226 = system: NCI-H226
NCI-H522 = system: NCI-H522
OVCAR-3 = system: OVCAR-3
RXF 393 = system: RXF 393
SF-268 = system: SF-268
SF-295 = system: SF-295
SK-MEL-28 = system: SK-MEL-28
SK-OV-3 = system: SK-OV-3
SNB-75 = system: SNB-75
TK-10 = system: TK-10
UACC-62 = system: UACC-62
A498 = system: A498

Measured: GI50

O=C(c1ccc(Cl)cc1)c1ccc(OCCCOc2ccc(C(=O)c3ccc(Cl)cc3)cc2)cc1
inactive: ACHN > 100 µM | HL-60 > 100 µM | KM12 > 100 µM | LOX IMVI > 100 µM | NCI-H226 > 100 µM | NCI-H522 > 100 µM | OVCAR-3 > 100 µM | RXF 393 88.3 µM | SF-268 > 100 µM | SF-295 > 100 µM | SK-MEL-28 > 100 µM | SK-OV-3 > 100 µM | SNB-75 33.6 µM | TK-10 > 100 µM | UACC-62 > 100 µM

O=C(c1nc2ccc(Cl)cc2[nH]c1=O)C(O)c1ccco1 (stereo not given)
inactive: ACHN 38.6 µM | HL-60 6.14 µM | LOX IMVI 36.6 µM | NCI-H226 > 100 µM | NCI-H522 1.9 µM | OVCAR-3 46 µM | RXF 393 > 100 µM | SF-268 98.9 µM | SF-295 > 100 µM | SK-MEL-28 > 100 µM | SK-OV-3 > 100 µM | SNB-75 > 100 µM | TK-10 > 100 µM | UACC-62 40.4 µM

C#Cc1cccc(N2C(=O)CC(=P(c3ccccc3)(c3ccccc3)c3ccccc3)C2=O)c1
inactive: A498 > 100 µM | ACHN > 100 µM | HL-60 15.1 µM | NCI-H226 58.2 µM | NCI-H522 25 µM | OVCAR-3 31.5 µM | SF-268 62.1 µM | SF-295 > 100 µM | SK-MEL-28 81.3 µM | SK-OV-3 > 100 µM | SNB-75 91.8 µM | TK-10 > 100 µM | UACC-62 29.3 µM

CCn1cnc2c(=S)nc(N)[nH]c21
inactive: ACHN > 100 µM | HL-60 > 100 µM | KM12 > 100 µM | LOX IMVI > 100 µM | NCI-H226 > 100 µM | NCI-H522 > 100 µM | OVCAR-3 > 100 µM | RXF 393 > 100 µM | SF-268 > 100 µM | SF-295 > 100 µM | SK-MEL-28 > 100 µM | SK-OV-3 > 100 µM | SNB-75 > 100 µM | TK-10 > 100 µM | UACC-62 > 100 µM

CC12N=NN(c3ccc([N+](=O)[O-])cc3)C1(O)c1ccccc1C2=O (stereo not given)
inactive: ACHN 48.5 µM | HL-60 > 100 µM | KM12 > 100 µM | LOX IMVI > 100 µM | NCI-H226 > 100 µM | NCI-H522 > 100 µM | OVCAR-3 > 100 µM | RXF 393 > 100 µM | SF-268 > 100 µM | SF-295 > 100 µM | SK-OV-3 > 100 µM | TK-10 > 100 µM | UACC-62 > 100 µM
